Reference: patent US20180265867A1, “NUCLEIC ACID MOLECULES WITH ENHANCED ACTIVITY” (priority 2015, published 2018)
d = 2'-deoxy (DNA); r = 2'-OH (RNA)

Key:
[1] = test system: A2780 human ovarian cancer cells; assay: Cell viability (ApoTox-Glo Triplex Assay) in A2780 cells; format: cell-based; details: 10 nM to 1000 nM, 48 h (FIG. 15)
Method: Cell viability study of 5-FU and siRNA derivatives bearing 5FU molecules were performed using, ApoTox-Glo™ Triplex Assay kit following manufacturer's protocol. Briefly, A2780 human ovarian cancer cells were seeded in 384 well BD Facon black plates (1000 cells in 50 μL/well) using automated Biomek FX pipetting workstation and incubated at 37° C. for 24 h for cell attachment. Stock solution of 5FU, siRNA-5FU2 and siRNA 5FU5 was prepared in cell culture medium (DMEM) respectively. siRNA-5FU2 and siRNA 5FU5 corresponds to Stat3 siRNA bearing 2 or 5 molecules of 5FU at the 3′end of the sense strand. After 24 h, different volume of stock solution was added to each well using non-contact acoustic dispenser (Echo 555), to obtain a gradient concentration ranging from 10 nM to 1000 nM and incubated for additional 48 h at 37° C. After 48 h, 20 μl of medium was treated with 5 μl of cell viability assay reagent, containing both GF-AFC substrate and bis-AAF-R110 substrate and incubated for 30 min at 37° C. Fluorescence values were recorded at two wavelength sets: 400Ex/505Em (Viability) and 485Ex/520Em (Cytotoxicity) using Envision Multilabel Plate Reader and the cell viability were obtained as a percentage of the untreated control (100% cell viability). […] All the cell experiments were measured in triplicate.

[2] = test system: Ctnnb1 (β-Catenin); assay: Ctnnb1 expression in MC3T3-E1 cells by quantitative RT-PCR; format: cell-based, mouse
Method: (§1) MC3T3-E1 cells were cultured in α-MEM (Sigma-Aldrich, Haverhill, UK) medium containing 10% FBS, 1% L-Glutamine, and 1% antibiotics (PeSt) at 37° C. with 5% CO2. One day prior to the miRNA treatment, 35,000 cells were plated per each well of a 24-well plate. On the experiment day, cells were replaced with 2% heat inactivated-FBS containing α-MEM medium with 1% L-Glutamine, and 1% antibiotics (PeSt). miR-34a-CP (final concentration: 50 nM) was given to the each well. Mirvana scrambled miRNA mimic was used as a negative control.
After 24 hours of transfection, and incubation, RNA extraction was performed by using miRCURY RNA Isolation Kit—Cell and Plant (#300100) and protocol from Exiqon, Vedbæk, Denmark. RNA samples were treated with DNase for 30 minutes at 37 degrees, thereafter inactivated with a DNase inactivation solution (TUTRBO DNase AM2238 thermofisher). Thereafter, RNA concentrations were measured using NanoDrop ND-1000 from NanoDrop Technologies, Wilmington, Del.
The cDNA was made from the total RNA using High Capacity cDNA reverse transcription kit (Applied Biosystems, USA). Reactions were performed on a 96-well Bio-Rad Thermal Cycler PCR System at 37° C. for 60 minutes, and at 95° C. for 5 min respectively. Real-time PCR reactions were performed as follows: 10 μl of 2×TaqMan® Universal PCR Master Mix, no AmpErase® UNG (Applied Biosystems, USA), 9 μl 1:5 diluted cDNA, and 1 μl of TaqMan gene specific assay mix. Final volume of the reaction mix was 20 uL. Internal control gene beta-actin (ACTB) (Applied Biosystems, USA) was selected as control for normalization of TaqMan data. The qRT-PCR reaction comprised a non-template control of cDNA in order to rule out any non-specific reading. Taqman probes for Ctnnb1, Sox9, Actb, were obtained from Applied Biosystems. The qRT-PCR amplification was carried out using the Bio-Rad qRT-PCR Thermocycler.
In order to achieve the transfection reagent free delivery of therapeutically potential microRNAs, we tested miR-34a and compared with miR-34a-CP. Since microRNAs unlike siRNAs have multiple targets in the cell, and there is a necessity to reduce the off-target and undesirable effects if any, we have also designed siRNA model siR-34a-CP as stated above. We have used mouse preosteoblast cell line MC3T3-E1 obtained from calvarial bone for the in-vitro functional validation of cell-penetrating molecules. On the day before transfection experiment, 35000 MC3T3-E1 cells were cultured per each well of the 24-well culture plate in alpha-Minimum Essential Medium with 10% heat inactivated FBS, 1% L-Glutamine, 1% antibiotics (Pe/St). […] 5% CO2. Thereafter, RNA extraction, cDNA preparation, and quantitative real-time PCR was performed by using TaqMan procedure.

[3] = test system: SOX9; assay: SOX9 expression in MC3T3-E1 cells by real-time PCR; format: cell-based, mouse; details: MC3T3-E1 cells (FIG. 13)
Method: as §1
After 24 hours of transfection, and incubation, RNA extraction was performed by using miRCURY RNA Isolation Kit—Cell and Plant (#300100) and protocol from Exiqon, Vedbæk, Denmark. […] Thereafter, RNA concentrations were measured using NanoDrop ND-1000 from NanoDrop Technologies, Wilmington, Del.
The cDNA was made from the total RNA using High Capacity cDNA reverse transcription kit (Applied Biosystems, USA). […] The qRT-PCR reaction comprised a non-template control of cDNA in order to rule out any non-specific reading. […]
Since overexpression of Ctnnb1 is indicative of osteogenic differentiation of cells, we determined the expression of transcription factor that could be activated. For this purpose, we measured the levels of […] marker SOX9 that is implicated in endochondral ossification.

| Molecule | cytotoxicity [1] | Ctnnb1 expression ([2]; 50 nM, 24 h, alone without transfection reagent (FIG. 11)) | Ctnnb1 expression ([2]; without transfection reagent MaTra (FIG. 12)) | SOX9 levels [3] |
| --- | --- | --- | --- | --- |
| O=c1[nH]cc(F)c(=O)[nH]1 [5FU, 5-Fluorouracil] | dose dependent cytotoxicity |  |  |  |
| miR-34a-CP: Cell penetrating miR-34a, sense SEQ ID NO: 22 with dA5, antisense SEQ ID NO: 23 (sense CAAUCAGCAAGUAUACUGCCCUAAAAA; antisense UGGCAGUGUCUUAGCUGGUUGU; sense: sugars from the 5' end r22 d5, backbone not given here; antisense: RNA, backbone not given here) |  | up regulation of Ctnnb1 | up regulation of Ctnnb1 | upregulated |
